Measurements taken from ChEMBL document CHEMBL1125224, “Examination of HIV-1 protease secondary structure specificity using conformationally constrained inhibitors” (J Med Chem, 1991).

These compounds were tested against Human immunodeficiency virus type 1 protease (Human immunodeficiency virus 1, UniProt Q72874) (assay: Concentration required to inhibit HIV-1 protease activity calculated from plots of % inhibition vs inhibitor concentration).
For `CC[C@H](C)[C@H](NC(=O)C[C@H](O)[C@H](CC1CCCCC1)NC(=O)CC1C=CCN2C(=O)CCC(CNCc3ccccc3)C(=O)N12)C(=O)N[C@@H](Cc1ccccc1)C(=O)O` (stereo not given in full), the IC50 was 360 µM.
With `CCC(C)[C@H](NC(=O)C[C@H](O)[C@H](Cc1ccccc1)NC(=O)CC1C=CCN2C(=O)CCC(CNCc3ccccc3)C(=O)N12)C(=O)N[C@@H](Cc1ccccc1)C(=O)OC` (stereo not given in full) the IC50 was 350 µM.
Work on `CCC(C)[C@H](NC(=O)C[C@H](O)[C@H](CC(C)C)NC(=O)CC1C=CCN2C(=O)CCC(CNCc3ccccc3)C(=O)N12)C(=O)N[C@@H](Cc1ccccc1)C(N)=O` (stereo not given in full) yielded an IC50 of 21 µM.
For `CC[C@H](C)[C@H](NC(=O)C[C@H](O)[C@H](CC(C)C)NC(=O)CC1C=CCN2C(=O)CCC(CNCc3ccccc3)C(=O)N12)C(=O)N[C@@H](Cc1ccccc1)C(=O)OC` (stereo not given in full), the IC50 was 140 µM.
`CCC(C)[C@H](NC(=O)C[C@H](O)[C@H](CC1CCCCC1)NC(=O)CC1CCCN2C(=O)CCC(CN)C(=O)N12)C(=O)N[C@@H](Cc1ccccc1)C(N)=O` (stereo not given in full) showed an IC50 of 0.026 µM.
